# Reference: the supplement of paper PMC10307832
# Assays:
# Experiment in all cases: relative viability (nuclei count vs DMSO), 5 days (fraction); higher = more cells survive
# Tosedostat + Vorinostat = compound: CC(C)C[C@@H](C(=O)N[C@H](C(=O)OC1CCCC1)c1ccccc1)[C@H](O)C(=O)NO [Tosedostat] + O=C(CCCCCCC(=O)Nc1ccccc1)NO [Vorinostat] (partner 1 µM)
# Method in brief: (§1)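 A single step with final 0.05% Triton X-100, 1% formaldehyde and 1 ug/ml Hoechst fixed the cells and stained nuclei 5 days after treatment. Lung cancer cell lines in 1536-well plates had been treated by pin tool the day after seeding with one drug alone or a fixed anchor-drug dose plus five library-drug doses (not always all listed) in √10 steps, and nuclei were counted on 4× images. Relative viability is the ratio of nuclei in treated wells to nuclei in vehicle wells, taken as the median of duplicate plates.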
# Tosedostat + Phenformin = compound: CC(C)C[C@@H](C(=O)N[C@H](C(=O)OC1CCCC1)c1ccccc1)[C@H](O)C(=O)NO [Tosedostat] + N=C(N)NC(=N)NCCc1ccccc1 [Phenformin] (partner 250 µM)
# Method in brief: as §1
# [1] = compound: CC1=NN=C(O1)C2=NN=C(C=C2)N3CCC(CC3)OC4=C(C=CC(=C4)F)Cl + O=C(CCCCCCC(=O)Nc1ccccc1)NO [Vorinostat] (partner 1 µM)
# Method in brief: as §1
# [2] = compound: CC1=NN=C(O1)C2=NN=C(C=C2)N3CCC(CC3)OC4=C(C=CC(=C4)F)Cl + CS(=O)(=O)CCNCc1ccc(-c2ccc3ncnc(Nc4ccc(OCc5cccc(F)c5)c(Cl)c4)c3c2)o1 [Lapatinib] (partner 2 µM)
# Method in brief: as §1
Cell Line,relative viability (Tosedostat + Vorinostat; first compound 0.02 µM),relative viability (Tosedostat + Vorinostat; first compound 0.06325 µM),relative viability (Tosedostat + Vorinostat; first compound 0.2 µM),relative viability (Tosedostat + Vorinostat; first compound 0.6325 µM),relative viability (Tosedostat + Vorinostat; first compound 2 µM),relative viability (Tosedostat + Phenformin; first compound 0.02 µM),relative viability (Tosedostat + Phenformin; first compound 0.06325 µM),relative viability (Tosedostat + Phenformin; first compound 0.2 µM),relative viability (Tosedostat + Phenformin; first compound 0.6325 µM),relative viability (Tosedostat + Phenformin; first compound 2 µM),relative viability ([1]; first compound 0.253 µM),relative viability ([1]; first compound 0.8 µM),relative viability ([1]; first compound 2.53 µM),relative viability ([1]; first compound 8 µM),relative viability ([2]; first compound 0.253 µM),relative viability ([2]; first compound 0.8 µM),relative viability ([2]; first compound 2.53 µM),relative viability ([2]; first compound 8 µM)
HCC-78,0.472,0.42,0.452,0.501,0.486,0.644,0.68,0.637,0.671,0.752,0.425,0.48,0.393,0.381,0.401,0.351,0.404,0.325
IA-LM,1.09,0.844,0.791,0.899,0.878,,,,,,0.402,0.296,0.435,0.364,0.283,0.241,0.257,0.275
NCI-H647,0.842,0.502,0.566,0.503,0.686,0.56,0.506,0.45,0.434,0.39,0.204,0.136,0.0766,0.0534,0.673,0.667,0.824,0.58
NCI-H520,0.737,0.77,0.59,0.839,0.761,0.391,0.593,0.585,0.712,0.782,0.561,0.712,0.569,0.613,0.888,0.84,0.82,0.764
NCI-H1355,0.654,0.631,0.705,0.543,0.604,0.43,0.445,0.457,0.38,0.377,0.405,0.478,0.625,0.558,,,0.869,0.78
COR-L23,0.57,0.454,0.38,0.343,0.399,0.486,0.386,0.415,0.383,0.401,0.332,0.378,0.375,0.316,0.811,0.761,0.756,0.602
NCI-H2347,0.496,0.451,0.681,0.498,0.575,0.384,0.439,0.55,0.267,0.275,0.629,0.597,0.428,0.501,0.557,0.631,0.593,0.535
LC-2-ad,0.835,0.702,0.7,0.688,0.512,0.692,0.555,0.56,0.438,0.508,0.321,0.254,0.322,0.284,0.291,0.271,0.335,0.262
NCI-H2023,0.641,0.547,0.62,0.358,0.501,0.397,0.38,0.382,0.351,0.359,0.357,0.268,0.309,0.322,0.441,0.407,0.409,0.435
